Experimental data published in patent EP0200024B1, “3-Cyano-pyridines, process for their preparation and their pharmaceutical use” (ARZNEIMITTELWERK DRESDEN GmbH, priority 1985, dated 1986).
pIC50: −log10 of the molar value. Like-named read-outs stand apart in the source and are kept apart here.

Tests used:
[1] = system: Narkotisierter Hund; assay: Anaesthetised dog i.v. (left ventricular pressure dp/dtmax, arterial pressure); assay type: in vivo, Bastardhunden; settings: for Steigerungen des Kontraktilitätsparameters dp/dtmax: result in words; for ED10 / ED50: Canis lupus familiaris, iv; for ED10: read-out: 10%ige Senkung des diastolischen Blutdruckes bei einer Dosis von; for ED50: read-out: 50%ige Steigerung des Kontraktilitätsparameters dp/dtmax bei einer Dosis von
From the text: Die Untersuchungen wurden an Bastardhunden in Chloralose-Urethan-Narkose bei Prämedikation mit Morphinhydrochlorid unter spontaner Atmung durchgeführt. . Der linksventrikuläre Druck wurde mittels Tipmanometer und der arterielle Druck wurde über Herzkatheter via A. brachialis gemessen [vgl. K. Femmer et al., Pharmazie 30 642 (1975)]. Unter dem Einfluß der 3-Cyan-2-(heteroalkyl-1-hetero)-pyridine der Formel I wurden eine dosisabhängige beträchtliche. Steigerung der Kontraktionskraft des Herzens sowie teilweise eine signifikante Senkung des peripheren Gesamtwiderstandes beobachtet. So zeigen beispielsweise die Verbindungen von Beispiel 3.2, 4.1, 4.3 und 4.5 eine 50%ige Steigerung des Kontraktilitätsparameters dp/dtmax bei einer Dosis von 6,1 · 10⁻⁶, 1,4 · 10⁻⁶, 2,5 · 10⁻⁶ bzw. 2.0 · 10⁻⁶ mol/kg sowie eine 10%ige Senkung des diastolischen Blutdruckes als relevantes Maß einer Abnahme des peripheren Gesamtwiderstandes bei einer Dosis von 2,1 · 10⁻⁶, 1,6 · 10⁻⁶,1,6 · 10⁻⁶ bzw. 1,2 · 10⁻⁶ mol/kg. Die Verbindung von Beispiel 2.1 zeigt bei einer Dosis von 5 mg/kg eine Steigerung von dp/dtmax um 126 % Für die Verbindung von Beispiel 2.1 wurde bei einer Dosis von 5 mg/kg eine Senkung des diastolischen Blutdruckes um 37 % gefunden.

[2] = system: Langendorff-Herz; assay: Langendorff heart in vitro (isolated perfused, freely beating heart; inotropy, chronotropy, coronary flow); design: species or system Meerschweinchen; activation: dose or concentration left out as unconfirmed; settings: for EC30: molarity of solution, 0,1 ml bolus into aortic stump, giving 30 % increase of inotropy, read-out: Erhöhung der Inotropie um 30 % bei Applikation von je 0,1 ml einer ... molaren Lösung; for EC100: molarity of solution, 0,1 ml bolus, giving 100 % increase of coronary flow, read-out: Erhöhung des Koronardurchflusses um 100 % bei Applikation von je 0,1 ml einer ... molaren Lösung; for positiv chronotrope Wirkung / positiv inotrope Wirkung: result in words; for activation at 10000 µM / activation: 0,1 ml of a 10⁻² molar stock solution into the aorta; for activation at 10000 µM: read-out: Erhöhung der Inotropie; for activation: read-out: Erhöhung des Koronardurchflusses
Protocol: Für die Versuche wurden männliche Meerschweinchen mit einer, Körpermasse von 300-350 g eingesetzt. An isolierten, mit carbogenbegaster Tyrodelösung von 37 °C durchströmten, frei schlagenden Herzen, wurden unter konstantem Druck die Kontraktionskraft (Inotropie), die Frequenz (Chronotropie) und der Koronardurchfluß unter dem Einfluß der 3-Cyan-2-(heteroalkyl-1-hetero)-5-(pyrid-4-yl)-pyridine der Formel I untersucht. Dazu wurden jeweils 0,1 ml der entsprechend molaren Substanzlösungen als Bolus direkt in den Aortenstumpf appliziert. Die 3-Cyan-2-(heteraalkyl-1-hetera)-5-(pyrid-4-yl)-pyridine zeigten eine teilweise starke und konzentrationsabhängige positiv inotrope und koronardilatatorische Wirkung. Die positiv chronotrope Wirkung war deutlich geringer, ausgeprägt. Beispielsweise zeigen die Verbindungen der Beispiele 1.2, 1.6, 1.7 und 1.8 eine Erhöhung der Inotropie um 30 % bei Applikation von je 0,1 ml einer 3,0 · 10⁻³, 2,2 · 10⁻², 2,0 · 10⁻⁴ bzw. 1,0 · 10⁻³ molaren Lösung und eine Erhöhung des Koronardurchflusses um 100 % bei Applikation von je 0,1 ml einer 6,0 · 10⁻³, 6,5 · 10⁻², 1,1 · 10⁻² bzw. 1,3 · 10⁻² molaren Lösung. Die Verbindungen der Beispiele 2.2, 2.3 und 2.4 weisen bei Applikation von je 0,1 ml einer 10⁻² molaren Stammlösung in die Aorta eine Erhöhung der Inotropie um 51 %, 38 % und 31 % sowie eine Erhöhung des Koronardurchflusses um 59 %, 99 % bzw. 88 % auf.

[3] = system: Meerschweinchen; assay: Inhalative histamine bronchospasm, oral administration; assay type: in vivo; settings: Cavia porcellus, 1 h, 60 min before inhaled 0,1 % histamine, 10 animals per dose, read-out: ED₅₀-Werte (Schutz vor Histamin-Bronchialkonstriktionen)
Protocol: Eine, in einem Ultraschallverdampfer vernebelte 0,1 %ige Histaminlösung induziert an männlichen Meerschweinchen (Körpermasse 200-300 g) innerhalb von 2 bis 3 Min. typische Bronchialkonstriktionen. Durch orale Verabreichung geeigneter Dosen der 3-Cyan-2-(heteroalkyl-1-hetero)-pyridine der Formel I 60 Min. vor der inhalativen Histamingabe wurden die Tiere innerhalb einer festgelegten Expositionszeit vor den durch Histamin verursachten Bronchialkonstriktionen geschützt. Für die Derivate von Beispiel 1.2, 1.6, 1.7 und 1.8 ergeben sich z.B. aus je 10 Tieren pro Dosis ED₅₀-Werte von 4,3 · 10⁻⁴, 6,0 · 10⁻⁴, 3,3 · 10⁻⁴ sowie 2,5 · 10⁻⁴ mol/kg, was auf deutliche bronchodilatatorische bzw. antiallergische Wirkungen hinweist.

[4] = system: Samenleiter von Meerschweinchen; assay: Noradrenaline antagonism in vitro (noradrenaline contraction of isolated vas deferens); settings: Cavia porcellus; compound given 1 min before submaximal noradrenaline concentration; read-out: ED₅₀-Werte (Hemmung der Noradrenalinkontraktion)
Protocol: Die in Warmblüterphosphattyrode präparierten Samenleiter von Meerschweinchen (ca. 400 g Körpermasse) wurden 60 Min. im Organbad adaptiert. Anschließend wurden die Kontraktionen unter Gabe von Noradrenalin isotonisch registriert. Die 3-Cyan-2-(heteroalkyl-1-hetero)-pyridine der Formel I wurden 1 Min vor den jeweils submaximal reagierenden Noradrenalinkonzentrationen in das Organbad appliziert. […] Für die Verbindungen von Beispiel 1.2, 1.6, 1.7 und 1.8 ergaben sich beispielsweise ED₅₀-Werte von 2,2 · 10⁻⁵, 1,6 · 10⁻⁴, 2,5 · 10⁻⁴ sowie 1,3 · 10⁻⁴ mol/l.

[5] = system: Isolierter, spontanaktiver Vorhof des Meerschweinchens; assay: Isolated, spontaneously active atrium (inotropy and frequency); design: species or system Meerschweinchen; settings: for chronotrope Wirkung / positiv inotrope Wirkung: result in words
Protocol: Für die Versuche wurden männliche Meerschweinchen mit einer Körpermasse von 400-500 g verwendet. Am isolierten, spontanaktiven Vorhof erfolgte nach einer 60 Min. währenden Adaptationszeit der Organpräparate in 32 °C temperierter carbogen-durchperlter Tyrodelösung die Untersuchung der Beeinflussung von Inotropie und Frequenz unter Einwirkung der 3-Cyan-2-(heteroalkyl-1-hetero)-pyridine der Formel I. Eine Reihe von Verbindungen zeigte eine starke und dosisabhängige positiv inotrope Wirkung. Bei Verwendung einer Tyrodelösung nach A.A. Alousi et al. [Circ. Res. 45, 666 (1979)] zeigen beispielsweise die Verbindungen von Beispiel 1.2, 1.7, 1.27, 3.3, 3.4, 3.5, 4.1 bzw. 4.3 eine 30%ige Steigerung der Inotropie bei Konzentrationen von 5,6 · 10⁻⁵, 5,4 · 10⁻⁶, 5,0 · 10⁻⁵, 5,8 · 10⁻⁵, 9,1 · 10⁻⁵, 1,6 · 10⁻⁴, 3,5 · 10⁻⁵ und 5,4 · 10⁻⁵ mol/l. Die Verbindung von Beispiel 1.27 zeigt bei einer Konzentration von 5 · 10⁻⁵ mol/l eine Abnahme der Frequenz um 15 %. Die Verbindung von Beispiel 1.8 zeigt bei Verwendung einer Tyrodelösung mit der Zusammensetzung (mmol/l): NaCl 136,9; KCl 2,7; CaCl₂ 1,8; MgCl₂ 1,0; NaHCO₃ 11,9; NaH₂PO₄ 0,4; Glucose 16,5 eine 30%ige Steigerung der Inotropie bei einer Konzentration von 1,2 · 10⁻⁴ mol/l.

[6] = Tyrode solution according to A.A. Alousi et al., 32 °C, read-out: 30%ige Steigerung der Inotropie bei Konzentrationen von

With `COc1ccc(-c2cc(C#N)c(N3CCOCC3)nc2C)cc1OC` [3-Cyan-5-(3,4-dimethoxy-phenyl)-6-methyl-2-morpholino-pyridin] the “Steigerungen des Kontraktilitätsparameters dp/dtmax” value [1] was “dosisabhängige beträchtliche Steigerungen”.
For `Cc1nc(N2CCOCC2)c(C#N)cc1-c1ccccc1` [3-Cyan-6-methyl-2-morpholino-5-phenyl-pyridin], the “Steigerungen des Kontraktilitätsparameters dp/dtmax” value [1] was “dosisabhängige beträchtliche Steigerungen”.
In the case of `N#Cc1cc(-c2ccncc2)cnc1N(CCO)CCO` [Beispiel 1.6, 2-[Bis-(2-hydroxy-ethyl)-amino]-3-cyan-5-(pyrid-4-yl)-pyridin], the EC30 [2] was 22000 µM, the EC100 [2] was 65000 µM and the ED50 [3] was 600 µmol/kg. For the same compound, the pIC50 [4] was 3.80.
For `N#Cc1cc(-c2ccncc2)cnc1NCCCO` [Beispiel 1.8, 3-Cyan-2-(3-hydroxy-propylamino)-5-(pyrid-4-yl)-pyridin], the EC30 [2] was 1000 µM, the EC100 [2] was 13000 µM and the “positiv chronotrope Wirkung” value [2] was “relative geringer positiv chronotroper Aktivität”. The “positiv inotrope Wirkung” value [2] was “ausgeprägte und dosisabhängige positiv inotrope Wirkung”, the EC30 ([5]; Tyrode solution (mmol/l): NaCl 136,9, KCl 2,7, CaCl₂ 1,8, MgCl₂ 1,0, NaHCO₃ 11,9, NaH₂PO₄ 0,4, Glucose 16,5, read-out: 30%ige Steigerung der Inotropie bei einer Konzentration von) was 120 µM and the “chronotrope Wirkung” value [5] was “relative geringer positiv chronotroper Aktivität”. The “positiv inotrope Wirkung” value [5] was “ausgeprägte und dosisabhängige positiv inotrope Wirkung”, the ED50 [3] was 250 µmol/kg and the pIC50 [4] was 3.89.
With `N#Cc1cc(-c2ccncc2)cnc1N1CCN(C(=O)c2ccco2)CC1` [Beispiel 1.27, 3-Cyan-2-[4-(furan-2-yl-carbonyl)-piperazino]-5-(pyrid-4-yl)-pyridin] the inhibition at 50 µM ([5]; Cavia porcellus, at a concentration of 5 · 10⁻⁵ mol/l, read-out: Abnahme der Frequenz) was 15%, the EC30 [5, 6] was 50 µM and the “chronotrope Wirkung” value [5] was “negativ chronotroper Wirkung”. For the same compound, the “positiv inotrope Wirkung” value [5] was “gute positiv inotrope Wirkung”.
With `COCCOc1ncc(-c2ccncc2)cc1C#N` [Beispiel 2.1, 3-Cyan-2-(2-methoxy-ethoxy)-5-(pyrid-4-yl)-pyridin] the “Senkung des diastolischen Blutdruckes” value ([1]; dose 5 mg/kg) was 37% and the Steigerung von dp/dtmax ([1]; dose 5 mg/kg) was 126%.
In the case of `N#Cc1cc(-c2ccncc2)cnc1OCCO` [Beispiel 2.2, 3-Cyan-2-(2-hydroxy-ethoxy-)-5-(pyrid-4-yl)-pyridin], the activation at 10000 µM [2] was 51%, the activation [2] was 59% and the “positiv chronotrope Wirkung” value [2] was “relative geringer positiv chronotroper Aktivität”. For the same compound, the “positiv inotrope Wirkung” value [2] was “ausgeprägte und dosisabhängige positiv inotrope Wirkung”, the “chronotrope Wirkung” value [5] was “relative geringer positiv chronotroper Aktivität” and the “positiv inotrope Wirkung” value [5] was “ausgeprägte und dosisabhängige positiv inotrope Wirkung”.
Work on `N#Cc1cc(-c2ccncc2)cnc1OCCCO` [Beispiel 2.3, 3-Cyan-2-(3-hydroxy-propoxy)-5-(pyrid-4-yl)-pyridin] yielded an activation at 10000 µM [2] of 38% and an activation [2] of 99%.
For `CC(O)COc1ncc(-c2ccncc2)cc1C#N` (stereo not shown) [Beispiel 2.4, 3-Cyan-2-(2-hydroxy-propoxy)-5-(pyrid-4-yl)-pyridin], the activation at 10000 µM [2] was 31% and the activation [2] was 88%.
For `Cc1nc(N2CCOCC2)c(C#N)cc1-c1ccncc1` [Beispiel 3.2, 3-Cyan-6-methyl-2-morpholino-5-(pyrid-4-yl)-pyridin], the ED10 [1] was 2.1 µmol/kg, the ED50 [1] was 6.1 µmol/kg and the “Steigerungen des Kontraktilitätsparameters dp/dtmax” value [1] was “dosisabhängige beträchtliche Steigerungen”.
In the case of `Cc1nc(NCCO)c(C#N)cc1-c1ccncc1` [Beispiel 3.3, 3-Cyan-2-(2-hydroxy-ethylamino)-6-methyl-5-(pyrid-4-yl)-pyridin], the EC30 [5, 6] was 58 µM and the “positiv inotrope Wirkung” value [5] was “gute und dosisabhängige positiv inotrope Wirkung”.
`Cc1nc(NCCCO)c(C#N)cc1-c1ccncc1` [Beispiel 3.4, 3-Cyan-2-(3-hydroxy-propylamino)-6-methyl-5-(pyrid-4-yl)-pyridin] was tested, and the EC30 [5, 6] was 91 µM and the “positiv inotrope Wirkung” value [5] was “gute und dosisabhängige positiv inotrope Wirkung”.
`Cc1nc(NCC(C)O)c(C#N)cc1-c1ccncc1` (stereo not shown) [Beispiel 3.5, 3-Cyan-2-(2-hydroxy-propylamino)-6-methyl-5-(pyrid-4-yl)-pyridin] was tested, and the EC30 [5, 6] was 160 µM.
In the case of `CC(=O)OCCNc1ncc(-c2ccncc2)cc1C#N` [Beispiel 4.1, 2-(2-Acetoxy-ethylamino)-3-cyan-5-(pyrid-4-yl)-pyridin], the EC30 [5, 6] was 35 µM, the “positiv inotrope Wirkung” value [5] was “gute und dosisabhängige positiv inotrope Wirkung” and the ED10 [1] was 1.6 µmol/kg. The ED50 [1] was 1.4 µmol/kg and the “Steigerungen des Kontraktilitätsparameters dp/dtmax” value [1] was “dosisabhängige beträchtliche Steigerungen”.
For `CC(=O)OCCOc1ncc(-c2ccncc2)cc1C#N` [Beispiel 4.3, 2-(2-Acetoxy-ethoxy)-3-cyan-5-(pyrid-4-yl)-pyridin], the EC30 [5, 6] was 54 µM, the “positiv inotrope Wirkung” value [5] was “gute und dosisabhängige positiv inotrope Wirkung” and the ED10 [1] was 1.6 µmol/kg. The ED50 [1] was 2.5 µmol/kg and the “Steigerungen des Kontraktilitätsparameters dp/dtmax” value [1] was “dosisabhängige beträchtliche Steigerungen”.
With `CCC(=O)OCCNc1ncc(-c2ccncc2)cc1C#N` [Beispiel 4.5, 3-Cyan-2-(2-propionyloxy-ethylamino)-5-(pyrid-4-yl)-pyridin] the ED10 [1] was 1.2 µmol/kg, the ED50 [1] was 2 µmol/kg and the “Steigerungen des Kontraktilitätsparameters dp/dtmax” value [1] was “dosisabhängige beträchtliche Steigerungen”.
